From publication PMC8871760, “Assessment of Five Pesticides as Endocrine-Disrupting Chemicals: Effects on Estrogen Receptors and Aromatase” (International Journal of Environmental Research and Public …, 2022)

Target: T1, recombinant form of human aromatase (Homo sapiens, UniProt P11511)
T1 construct: gene CYP19A1; purified recombinant; assayed with equimolar human CPR; with NADPH--cytochrome P450 reductase
T1 sequence (P11511 1-503): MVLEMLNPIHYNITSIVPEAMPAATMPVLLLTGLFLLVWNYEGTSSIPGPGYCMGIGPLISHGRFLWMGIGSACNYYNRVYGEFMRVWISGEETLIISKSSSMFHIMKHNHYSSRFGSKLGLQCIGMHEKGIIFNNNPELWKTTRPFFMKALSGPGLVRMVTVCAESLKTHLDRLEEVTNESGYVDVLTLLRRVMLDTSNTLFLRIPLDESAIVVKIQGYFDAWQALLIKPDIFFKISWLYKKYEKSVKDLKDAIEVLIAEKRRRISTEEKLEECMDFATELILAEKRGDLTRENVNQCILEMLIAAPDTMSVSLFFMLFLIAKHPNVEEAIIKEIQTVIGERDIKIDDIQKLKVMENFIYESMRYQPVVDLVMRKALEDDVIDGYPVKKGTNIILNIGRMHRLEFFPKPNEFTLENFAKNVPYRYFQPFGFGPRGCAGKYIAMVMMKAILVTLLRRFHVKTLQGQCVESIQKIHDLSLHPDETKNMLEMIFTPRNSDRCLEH
T1 sequence (P16435 2-677 partner): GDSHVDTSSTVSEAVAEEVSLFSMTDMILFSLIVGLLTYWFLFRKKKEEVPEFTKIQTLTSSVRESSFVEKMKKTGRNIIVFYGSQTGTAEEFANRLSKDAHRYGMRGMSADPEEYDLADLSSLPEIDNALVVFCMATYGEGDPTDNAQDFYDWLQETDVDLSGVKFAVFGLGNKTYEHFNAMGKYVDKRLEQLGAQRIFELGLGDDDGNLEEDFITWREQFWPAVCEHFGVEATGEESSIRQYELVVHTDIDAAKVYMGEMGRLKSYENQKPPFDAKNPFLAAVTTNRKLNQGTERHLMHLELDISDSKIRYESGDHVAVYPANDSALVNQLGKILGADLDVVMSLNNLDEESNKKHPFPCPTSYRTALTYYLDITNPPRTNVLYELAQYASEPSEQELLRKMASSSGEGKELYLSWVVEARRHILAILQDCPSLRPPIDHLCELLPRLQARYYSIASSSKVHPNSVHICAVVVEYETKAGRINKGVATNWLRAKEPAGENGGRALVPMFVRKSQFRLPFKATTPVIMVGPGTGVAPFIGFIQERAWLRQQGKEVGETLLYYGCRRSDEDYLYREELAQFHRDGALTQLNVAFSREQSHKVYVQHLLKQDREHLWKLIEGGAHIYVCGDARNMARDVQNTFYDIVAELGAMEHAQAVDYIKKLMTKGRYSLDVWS
Experiment: estrone ELISA of aromatase reaction
Assay type: biochemical
Details: read-out: Relative Activity (% of C+) / 5 × 10^-6 M
Description: estrone ELISA of aromatase reaction on recombinant form of human aromatase

Question: Which activity at 5 µM does the source give for `C/C(=N\C#N)N(C)Cc1ccc(Cl)nc1` [Acetamiprid] here?
Answer: 87.5 ± 17.6%

Question: With `CN/C(=N\[N+](=O)[O-])NCc1cnc(Cl)s1` [Clothianidin] as the molecule, how does the activity at 5 µM read?
Answer: 97.9 ± 5.2%

Question: For `CNC(=O)Oc1cc(C)c(SC)c(C)c1` [Methiocarb], which activity at 5 µM is on record?
Answer: 90.9 ± 5.4%

Question: With `CC(C)Oc1cc(-n2nc(C(C)(C)C)oc2=O)c(Cl)cc1Cl` [Oxadiazon] as the molecule, how does the activity at 5 µM read?
Answer: 101 ± 16.7%

Question: `CN1COCN(Cc2cnc(Cl)s2)C1=N[N+](=O)[O-]` [Thiamethoxam] was tested. Which activity at 5 µM did it give?
Answer: 95.6 ± 17.1%
